Columns and labels:
MALME-3M [1] = test system: MALME-3M
MALME-3M [2] = assay: panel of 60 human tumor cell lines, growth inhibition (Melanoma); details: MALME-3M; for GI50 / TGI: NCI five dose

C=C1C(=O)O[C@H]2[C@H]1CC/C(COC(=O)CCC(=O)N1CCC(C)CC1)=C\CC[C@@]1(C)O[C@@H]21 [JVM 2-70]
CC50 (OVCAR-8): 42.9 µM | CC50 (BT-549): 29.3 µM | CC50 (MDA-MB-435): 61.9 µM | CC50 (NCI-H322M): 65.1 µM | CC50 (SK-MEL-2): 61 µM | CC50 (SK-OV-3): > 100 µM | CC50 (MOLT-4): > 100 µM | CC50 (MDA-MB-231/ATCC): 52.8 µM | CC50 (A498): 45.2 µM | CC50 (HOP-92): 36.4 µM | CC50 (MALME-3M [1]): 53.6 µM | CC50 (SK-MEL-28): 44.5 µM | CC50 (NCI/ADR-RES): 96 µM | CC50 (RXF 393): 9.41 µM | CC50 (UO-31): 46.9 µM | CC50 (HT29): 44.5 µM | CC50 (LOX IMVI): 41 µM | CC50 (HOP-62): 74.9 µM | CC50 (SK-MEL-5): 47.8 µM | CC50 (SF-295): 71 µM | CC50 (SNB-75): 57 µM | Percent Growth (MALME-3M [2]; Log10 Concentration −4.0): −67% | Percent Growth (MALME-3M [2]; Log10 Concentration −5.0): −5% | Percent Growth (MALME-3M [2]; Log10 Concentration −6.0): 99% | Percent Growth (MALME-3M [2]; Log10 Concentration −7.0): 108% | Percent Growth (MALME-3M [2]; Log10 Concentration −8.0): 106% | GI50 (MALME-3M [2]): 2.95 µM | TGI (MALME-3M [2]): 8.96E−5 | CC50 (SF-268): 69.1 µM | CC50 (SN12C): 51.9 µM | CC50 (HCT-15): 32.6 µM | CC50 (PC-3): 69.1 µM | CC50 (SR): > 100 µM | CC50 (M14): 49.3 µM | CC50 (HCC-2998): 61 µM | CC50 (T-47D): > 100 µM | CC50 (DU-145): 45.9 µM | CC50 (HS 578T): > 100 µM | CC50 (NCI-H460): 89.4 µM | CC50 (UACC-62): 49.5 µM | CC50 (NCI-H522): 5.99 µM | CC50 (K-562): > 100 µM | CC50 (SW-620): 42.6 µM | CC50 (U251): 59.7 µM | CC50 (IGROV1): 94 µM | CC50 (OVCAR-5): 49.9 µM | CC50 (786-0): 58 µM | CC50 (SNB-19): 63.4 µM | CC50 (CAKI-1): 36.2 µM | CC50 (CCRF-CEM): 58.6 µM | CC50 (TK-10): 36.3 µM

C=C1C(=O)O[C@H]2[C@H]1CC/C(COC(=O)NC)=C\CC[C@@]1(C)O[C@@H]21 [JVM 2-57]
CC50 (OVCAR-8): 57.2 µM | CC50 (BT-549): 33.1 µM | CC50 (MDA-MB-435): 53.1 µM | CC50 (NCI-H322M): > 100 µM | CC50 (SK-MEL-2): 69 µM | CC50 (SK-OV-3): > 100 µM | CC50 (MOLT-4): > 100 µM | CC50 (MDA-MB-231/ATCC): 56.2 µM | CC50 (A498): 47.4 µM | CC50 (HOP-92): 29.7 µM | CC50 (MALME-3M [1]): 55 µM | CC50 (SK-MEL-28): 52 µM | CC50 (NCI/ADR-RES): > 100 µM | CC50 (RXF 393): 44.1 µM | CC50 (UO-31): 36.9 µM | CC50 (HT29): 57 µM | CC50 (LOX IMVI): 43.2 µM | CC50 (HOP-62): 59.5 µM | CC50 (SK-MEL-5): 66 µM | CC50 (SF-295): > 100 µM | CC50 (SNB-75): > 100 µM | Percent Growth (MALME-3M [2]; Log10 Concentration −4.0): −76% | Percent Growth (MALME-3M [2]; Log10 Concentration −5.0): 25% | Percent Growth (MALME-3M [2]; Log10 Concentration −6.0): 94% | Percent Growth (MALME-3M [2]; Log10 Concentration −7.0): 95% | Percent Growth (MALME-3M [2]; Log10 Concentration −8.0): 95% | GI50 (MALME-3M [2]): 4.38 µM | TGI (MALME-3M [2]): 1.77E−5 | CC50 (SF-268): 68.6 µM | CC50 (SN12C): 78.1 µM | CC50 (HCT-15): 41.8 µM | CC50 (PC-3): 71.1 µM | CC50 (SR): > 100 µM | CC50 (M14): 66.7 µM | CC50 (HCC-2998): 61.6 µM | CC50 (T-47D): 40.2 µM | CC50 (DU-145): 39.3 µM | CC50 (HS 578T): > 100 µM | CC50 (NCI-H460): 78 µM | CC50 (UACC-62): 50.5 µM | CC50 (NCI-H522): 6.85 µM | CC50 (K-562): > 100 µM | CC50 (SW-620): 44.7 µM | CC50 (U251): 53 µM | CC50 (IGROV1): 77 µM | CC50 (OVCAR-5): 44.3 µM | CC50 (786-0): 49.6 µM | CC50 (SNB-19): > 100 µM | CC50 (CAKI-1): 36.6 µM | CC50 (CCRF-CEM): 76.3 µM | CC50 (TK-10): 31.8 µM

Reference: patent publication US9469650B2, “Melampomagnolide B derivatives” (BOARD OF TRUSTEES OF THE UNIVERSITY OF ARKANSAS, priority 2013, dated 2016)
